Measured values published in US11643429B2, “Compounds and methods for the treatment of ocular disorders” (Azura Ophthalmics Ltd., priority 2019, dated 2023).

Legend:
[1] = Aqueous Hydrolysis Stability Assay; type: physicochemical; settings: New Zealand White, rabbit, rabbit cornea homogenate (esterase assay) in HEPES buffer, pH 7.5; ND, estimated from esterase assay; read-out: T1/2 Aq Stability
[2] = Rabbit Cornea Homogenate Stability Assay (Rabbit Cornea Esterase Assay); type: in vitro ADME; settings: New Zealand White, 37° C., half-life of parent conjugate
Description: Determining Rabbit Cornea Homogenate stability of the test compounds was performed using HPLC-MS. The assay was performed at two concentrations of Rabbit Cornea Homogenate (0.15 mg/ml and 0.45 mg/ml total protein) so that any hydrolysis observed could be assigned as esterase dependent or not.
Five rabbit corneas (e.g. New Zealand Whites) of approx. 50 mg each were sliced and scraped with a scalpel and tweezers until reduced to small (1-3 mm), thin pieces. These were transferred into a tared vial and accurately weighed, then diluted with 10 volumes aqueous PBS pH7.4
Sample was cooled intermittently on ice and shear homogenized for 3 minutes, then centrifuged for 3 min at 3000 rpm. The supernatant was pipetted off into a vial, and total protein concentration determined at 280 nm. Sample was stored at −78° C.
10 mM Compound stocks were diluted to 100 μM in a 96 deep-well plate: 10 μl of 10 mM Compound stock was added to 990 μl 50 mM HEPES, pH7.5 buffer.
Compounds were further diluted to 10 μM: 100 μl of 100 μM compound was added to 900 μl 50 mM HEPES, pH7.5 buffer.
Esterase homogenate was diluted to 300 ng/μl and 900 ng/μl
A heater shaker was set to 37° C. Into a suitable 96 well plate (Run Plate), 75 μl of 300 or 900 ng/μl esterase homogenate was pipetted into each of the required wells (2 min, 5 min, 10 min, 20 min and 45 min). The plate was sealed and then warmed at 37° C. for 5 min. Another 96 well PCR plate was put on ice (Kill Plate). To this was added 100 μl of MeCN to each well, labelled 0 min 2 min, 5 min, 10 min, 20 min and 45 min. The plate was covered to minimise evaporation. For the T=0 sample only, to the 100 μl cold MeCN stop solution was added 50 μl of 300 or 900 ng/μl esterase homogenate followed by 50 μl of 10 μM compound solution For the remaining timepoints, 75 μl of 10 μM compound solution was added to the Run Plate starting from T=45 min row and ending with T=2 min row. At the appropriate time point, 100 μl of the assay mixture was added to the matching kill plate well containing 100 μl of cold MeCN. Samples were analysed as soon as practicable by LCMS (Waters Xevo TQ-S or Micromass Ultima). Parent conjugate and parent concentrations were determined against appropriate standard response curves and the half-life (T1/2) of the parent conjugate was calculated using the peak area of the parent conjugate at each time point in the linear region of the log-linear plot.

[3] = Aqueous Hydrolysis Stability Assay; type: physicochemical; settings: 50 mM HEPES buffer pH 7.5; HEPES pH 7.5, room temperature; read-out: T1/2 Aq Stability
Description: Determination of aqueous stability of the test compounds was performed using HIPLC-MS. A test compound 10 mM stock solution was prepared in DMSO. 10 μl of the DMSO stock solution was dissolved in 990 μl of 50 mM HEPES pH 7.5 buffer or 1:1 (v/v) of Acetonitrile:Water to make a 100 μM solution. Final DMSO concentration was 1%. The solution was kept at room temperature and injected without delay into the LCMS (Waters Xevo TQ-S or Micromass Ultima). Additional injections were performed at appropriate time points. Half-life (T1/2) of the parent conjugate was calculated using the peak area of the parent conjugate at each time point in the linear region of the log-linear plot.

[4] = pH 7.5, Rabbit Cornea Homogenate 0.15 mg/ml total protein, read-out: T1/2 Esterase (min) (0.15 mg/ml Homogenate)
[5] = pH 7.5, Rabbit Cornea Homogenate 0.45 mg/ml total protein, read-out: T1/2 Esterase (min) (0.45 mg/ml Homogenate)

SMILES | half-life at 5 µM [1] [h] | half-life at 5 µM [2, 4] [min] | half-life at 5 µM [2, 5] [min] | half-life at 100 µM [3] [h]
CC[C@H]1OC(=O)[C@H](C)[C@@H](O[C@H]2C[C@@](C)(OC)[C@@H](O)[C@H](C)O2)[C@H](C)[C@@H](O[C@@H]2O[C@H](C)C[C@H](N(C)C)[C@H]2OC(=O)O[C@H](C)C(=O)OC)[C@](C)(O)C[C@@H](C)CN(C)[C@H](C)[C@@H](O)[C@]1(C)O [Compound 10, Methyl (R)-2-(((((2S,3R,4S,6R)-4-(dimethylamino)-2-(((2R,3S,4R,5R,8R,10R,11R,12S,13S,14R)-2-ethyl-3,4,10-trihydroxy-13-(((2R,4R,5S,6S)-5-hydroxy-4-methoxy-4,6-dimethyltetrahydro-2H-pyran-2-yl)oxy)-3,5,6,8,10,12,14-heptamethyl-15-oxo-1-oxa-6-azacyclopentadecan-11-yl)oxy)-6-methyltetrahydro-2H-pyran-3-yl)oxy)carbonyl)oxy)propanoate] | ~0.85 | 53 | 49 | 
CC[C@H]1OC(=O)[C@H](C)[C@@H](O[C@H]2C[C@@](C)(OC)[C@@H](OC(C)=O)[C@H](C)O2)[C@H](C)[C@@H](O[C@@H]2O[C@H](C)C[C@H](N(C)C)[C@H]2O)[C@](C)(O)C[C@@H](C)CN(C)[C@H](C)[C@@H](O)[C@]1(C)O [Compound 13, (2S,3S,4R,6R)-6-(((2R,3S,4R,5R,8R,10R,11R,12S,13S,14R)-11-(((2S,3R,4S,6R)-4-(Dimethylamino)-3-hydroxy-6-methyltetrahydro-2H-pyran-2-yl)oxy)-2-ethyl-3,4,10-trihydroxy-3,5,6,8,10,12,14-heptamethyl-15-oxo-1-oxa-6-azacyclopentadecan-13-yl)oxy)-4-methoxy-2,4-dimethyltetrahydro-2H-pyran-3-yl acetate] |  | > 120 | > 120 | > 2
CC[C@H]1OC(=O)[C@H](C)[C@@H](O[C@H]2C[C@@](C)(OC)[C@@H](O)[C@H](C)O2)[C@H](C)[C@@H](O[C@@H]2O[C@H](C)C[C@H](N(C)C)[C@H]2OC(=O)CCOCCOCCOCCOCCO)[C@](C)(O)C[C@@H](C)CN(C)[C@H](C)[C@@H](O)[C@]1(C)O [Compound 5, (2S,3R,4S,6R)-4-(Dimethylamino)-2-(((2R,3S,4R,5R,8R,10R,11R,12S,13S,14R)-2-ethyl-3,4,10-trihydroxy-13-(((2R,4R,5S,6S)-5-hydroxy-4-methoxy-4,6-dimethyltetrahydro-2H-pyran-2-yl)oxy)-3,5,6,8,10,12,14-heptamethyl-15-oxo-1-oxa-6-azacyclopentadecan-11-yl)oxy)-6-methyltetrahydro-2H-pyran-3-yl 1-hydroxy-3,6,9,12-tetraoxapentadecan-15-oate] |  | 21 | 24 | 1.2
CC[C@H]1OC(=O)[C@H](C)[C@@H](O[C@H]2C[C@@](C)(OC)[C@@H](O)[C@H](C)O2)[C@H](C)[C@@H](O[C@@H]2O[C@H](C)C[C@H](N(C)C)[C@H]2O)[C@](C)(O)C[C@@H](C)CN(C)[C@H](C)[C@@H](OC(=O)CO)[C@]1(C)O [Compound 11, (2R,3R,4R,5R,8R,10R,11R,12S,13S,14R)-11-(((2S,3R,4S,6R)-4-(Dimethylamino)-3-hydroxy-6-methyltetrahydro-2H-pyran-2-yl)oxy)-2-ethyl-3,10-dihydroxy-3-(((2R,4R,5S,6S)-5-hydroxy-4-methoxy-4,6-dimethyltetrahydro-2H-pyran-2-yl)oxy)-3,5,6,8,10,12,14-heptamethyl-15-oxo-1-oxa-6-azacyclopentadecan-4-yl 2-hydroxyacetate] |  | > 120 | > 120 | > 2
CC[C@H]1OC(=O)[C@H](C)[C@@H](O[C@H]2C[C@@](C)(OC)[C@@H](O)[C@H](C)O2)[C@H](C)[C@@H](O[C@@H]2O[C@H](C)C[C@H](N(C)C)[C@H]2O)[C@](C)(O)C[C@@H](C)CN(C)[C@H](C)[C@@H](OC(C)=O)[C@]1(C)O [Compound 12, (2R,3R,4R,5R,8R,10R,11R,12S,13S,14R)-11-(((2S,3R,4S,6R)-4-(Dimethylamino)-3-hydroxy-6-methyltetrahydro-2H-pyran-2-yl)oxy)-2-ethyl-3,10-dihydroxy-13-(((2R,4R,5S,6S)-5-hydroxy-4-methoxy-4,6-dimethyltetrahydro-2H-pyran-2-yl)oxy)-3,5,6,8,10,12,14-heptamethyl-15-oxo-1-oxa-6-azacyclopentadecan-4-yl acetate] |  | > 120 | > 120 | > 2
